Measured values as given in PubChem BioAssay (NCI).
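Here, GI50 denotes the concentration required for 50% inhibition of growth. Definition used: TGI = concentration required for complete inhibition of growth.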

What was measured:
Experiment in all cases: DTP human tumour cell line panel, 384-well format
CCRF-CEM leukemia = tested on: CCRF-CEM leukemia
K-562 leukemia = tested on: K-562 leukemia
HT29 colon = tested on: HT29 colon
U251 glioblastoma = tested on: U251 glioblastoma
COLO 205 colon = tested on: COLO 205 colon
SNB-19 CNS = tested on: SNB-19 CNS
IGROV1 ovarian = tested on: IGROV1 ovarian
KM12 colon = tested on: KM12 colon
NCI-H460 NSCLC = tested on: NCI-H460 NSCLC
MOLT-4 leukemia = tested on: MOLT-4 leukemia
A498 renal = tested on: A498 renal
HS 578T breast = tested on: HS 578T breast
HCT-15 colon = tested on: HCT-15 colon
MDA-MB-231 breast = tested on: MDA-MB-231 breast
NCI-H522 lung = tested on: NCI-H522 lung
ACHN renal = tested on: ACHN renal
OVCAR-4 ovarian = tested on: OVCAR-4 ovarian
SF-539 CNS = tested on: SF-539 CNS
BT-549 breast = tested on: BT-549 breast
UACC-257 melanoma = tested on: UACC-257 melanoma
SK-MEL-28 melanoma = tested on: SK-MEL-28 melanoma
DU-145 prostate = tested on: DU-145 prostate
TK-10 renal = tested on: TK-10 renal
SW-620 colon = tested on: SW-620 colon
SK-OV-3 ovarian = tested on: SK-OV-3 ovarian
HCC-2998 colon = tested on: HCC-2998 colon
NCI-H226 lung = tested on: NCI-H226 lung
EKVX NSCLC = tested on: EKVX NSCLC
HL-60(TB) leukemia = tested on: HL-60(TB) leukemia
M14 melanoma = tested on: M14 melanoma
MDA-MB-468 breast = tested on: MDA-MB-468 breast
MCF7 breast = tested on: MCF7 breast
HCT-116 colon = tested on: HCT-116 colon
CAKI-1 renal = tested on: CAKI-1 renal
PC-3 prostate = tested on: PC-3 prostate
SF-295 CNS = tested on: SF-295 CNS
MALME-3M melanoma = tested on: MALME-3M melanoma
OVCAR-8 ovarian = tested on: OVCAR-8 ovarian
SN12C renal = tested on: SN12C renal
RPMI-8226 leukemia = tested on: RPMI-8226 leukemia
RXF 393 renal = tested on: RXF 393 renal
SK-MEL-5 melanoma = tested on: SK-MEL-5 melanoma
SF-268 CNS = tested on: SF-268 CNS
NCI-H322M lung = tested on: NCI-H322M lung
OVCAR-3 ovarian = tested on: OVCAR-3 ovarian
A549 NSCLC = tested on: A549 NSCLC
UACC-62 melanoma = tested on: UACC-62 melanoma
786-0 renal = tested on: 786-0 renal
UO-31 renal = tested on: UO-31 renal
LOX IMVI melanoma = tested on: LOX IMVI melanoma
NCI/ADR-RES ovarian = tested on: NCI/ADR-RES ovarian
HOP-92 NSCLC = tested on: HOP-92 NSCLC
MDA-MB-435 melanoma = tested on: MDA-MB-435 melanoma
NCI-H23 lung = tested on: NCI-H23 lung
HOP-62 NSCLC = tested on: HOP-62 NSCLC
T-47D breast = tested on: T-47D breast
SNB-75 CNS = tested on: SNB-75 CNS
OVCAR-5 ovarian = tested on: OVCAR-5 ovarian

## COc1ccc(-c2nc(N3CCOCC3)c3sc(CN(C)c4ncc(C(=O)NO)cn4)cc3n2)cn1
CCRF-CEM leukemia
  GI50: < 0.01 µM
  TGI: < 0.01 µM
K-562 leukemia
  GI50: < 0.01 µM
  TGI: < 0.01 µM
HT29 colon
  GI50: < 0.01 µM
  TGI: 0.0125 µM
U251 glioblastoma
  GI50: < 0.01 µM
  TGI: < 0.01 µM
COLO 205 colon
  GI50: < 0.01 µM
  TGI: 0.011 µM
SNB-19 CNS
  GI50: < 0.01 µM
  TGI: 0.0187 µM
IGROV1 ovarian
  GI50: < 0.01 µM
  TGI: 0.0106 µM
KM12 colon
  GI50: < 0.01 µM
  TGI: 0.0151 µM
NCI-H460 NSCLC
  GI50: < 0.01 µM
  TGI: 0.0117 µM
MOLT-4 leukemia
  GI50: < 0.01 µM
  TGI: < 0.01 µM
A498 renal
  GI50: < 0.01 µM
  TGI: 0.0123 µM
HS 578T breast
  GI50: < 0.01 µM
  TGI: 0.016 µM
HCT-15 colon
  GI50: < 0.01 µM
  TGI: 0.0232 µM
MDA-MB-231 breast
  GI50: < 0.01 µM
  TGI: < 0.01 µM
NCI-H522 lung
  GI50: < 0.01 µM
  TGI: < 0.01 µM
ACHN renal
  GI50: < 0.01 µM
  TGI: 0.0133 µM
OVCAR-4 ovarian
  GI50: 0.0139 µM
  TGI: 0.0407 µM
SF-539 CNS
  GI50: < 0.01 µM
  TGI: 0.0136 µM
BT-549 breast
  GI50: < 0.01 µM
  TGI: 0.0136 µM
UACC-257 melanoma
  GI50: < 0.01 µM
  TGI: < 0.01 µM
SK-MEL-28 melanoma
  GI50: < 0.01 µM
  TGI: 0.0179 µM
DU-145 prostate
  GI50: < 0.01 µM
  TGI: < 0.01 µM
TK-10 renal
  GI50: 0.0116 µM
  TGI: 0.0287 µM
SW-620 colon
  GI50: < 0.01 µM
  TGI: < 0.01 µM
SK-OV-3 ovarian
  GI50: < 0.01 µM
  TGI: < 0.01 µM
HCC-2998 colon
  GI50: < 0.01 µM
  TGI: < 0.01 µM
NCI-H226 lung
  GI50: < 0.01 µM
  TGI: 0.033 µM
EKVX NSCLC
  GI50: 0.014 µM
  TGI: 0.0765 µM
HL-60(TB) leukemia
  GI50: < 0.01 µM
  TGI: < 0.01 µM
M14 melanoma
  GI50: < 0.01 µM
  TGI: < 0.01 µM
MDA-MB-468 breast
  GI50: < 0.01 µM
  TGI: < 0.01 µM
MCF7 breast
  GI50: < 0.01 µM
  TGI: < 0.01 µM
HCT-116 colon
  GI50: < 0.01 µM
  TGI: < 0.01 µM
CAKI-1 renal
  GI50: < 0.01 µM
  TGI: < 0.01 µM
PC-3 prostate
  GI50: < 0.01 µM
  TGI: 0.0107 µM
SF-295 CNS
  GI50: < 0.01 µM
  TGI: 0.0189 µM
MALME-3M melanoma
  GI50: < 0.01 µM
  TGI: < 0.01 µM
OVCAR-8 ovarian
  GI50: < 0.01 µM
  TGI: 0.0101 µM
SN12C renal
  GI50: < 0.01 µM
  TGI: 0.0163 µM
RPMI-8226 leukemia
  GI50: < 0.01 µM
  TGI: < 0.01 µM
RXF 393 renal
  GI50: < 0.01 µM
  TGI: < 0.01 µM
SK-MEL-5 melanoma
  GI50: < 0.01 µM
  TGI: < 0.01 µM
SF-268 CNS
  GI50: < 0.01 µM
  TGI: < 0.01 µM
NCI-H322M lung
  GI50: < 0.01 µM
  TGI: 0.0191 µM
OVCAR-3 ovarian
  GI50: < 0.01 µM
  TGI: < 0.01 µM
A549 NSCLC
  GI50: < 0.01 µM
  TGI: < 0.01 µM
UACC-62 melanoma
  GI50: < 0.01 µM
  TGI: < 0.01 µM
786-0 renal
  GI50: < 0.01 µM
  TGI: 0.0284 µM
UO-31 renal
  GI50: < 0.01 µM
  TGI: 0.0269 µM
LOX IMVI melanoma
  GI50: < 0.01 µM
  TGI: < 0.01 µM
NCI/ADR-RES ovarian
  GI50: < 0.01 µM
  TGI: 0.0125 µM
HOP-92 NSCLC
  GI50: < 0.01 µM
  TGI: 0.0236 µM
MDA-MB-435 melanoma
  GI50: < 0.01 µM
  TGI: 0.0101 µM
NCI-H23 lung
  GI50: < 0.01 µM
  TGI: < 0.01 µM
HOP-62 NSCLC
  GI50: < 0.01 µM
  TGI: 0.0174 µM
T-47D breast
  GI50: < 0.01 µM
  TGI: < 0.01 µM
SNB-75 CNS
  GI50: < 0.01 µM
  TGI: 0.0226 µM
OVCAR-5 ovarian
  GI50: < 0.01 µM
  TGI: 0.0169 µM

## CCN(CC)CCCCNc1ncc2cc(-c3cc(OC)cc(OC)c3)c(NC(=O)NC(C)(C)C)nc2n1
CCRF-CEM leukemia
  GI50: 2.16 µM
  TGI: 4.68 µM
K-562 leukemia
  GI50: 2.56 µM
  TGI: 6.17 µM
HT29 colon
  GI50: 1.6 µM
  TGI: 3.46 µM
U251 glioblastoma
  GI50: 3.84 µM
  TGI: 12.6 µM
COLO 205 colon
  GI50: 7.16 µM
  TGI: 19.4 µM
SNB-19 CNS
  GI50: 13.6 µM
  TGI: 26.7 µM
IGROV1 ovarian
  GI50: 3.56 µM
  TGI: 16 µM
KM12 colon
  GI50: 5.32 µM
  TGI: 17.3 µM
NCI-H460 NSCLC
  GI50: 3.57 µM
  TGI: 12.6 µM
MOLT-4 leukemia
  GI50: 1.64 µM
  TGI: 3.26 µM
A498 renal
  GI50: 2.48 µM
  TGI: 15 µM
HS 578T breast
  GI50: 2.28 µM
  TGI: 9.13 µM
HCT-15 colon
  GI50: 3.02 µM
  TGI: 11.6 µM
MDA-MB-231 breast
  GI50: 9.09 µM
  TGI: 21.1 µM
NCI-H522 lung
  GI50: 10.1 µM
  TGI: 21.7 µM
ACHN renal
  GI50: 4.17 µM
  TGI: 15.8 µM
OVCAR-4 ovarian
  GI50: 13.6 µM
  TGI: 26.6 µM
SF-539 CNS
  GI50: 2.22 µM
  TGI: 8.59 µM
BT-549 breast
  GI50: 2.49 µM
  TGI: 12.8 µM
UACC-257 melanoma
  GI50: 1.98 µM
  TGI: 3.41 µM
SK-MEL-28 melanoma
  GI50: 3.23 µM
  TGI: 8.34 µM
DU-145 prostate
  GI50: 7.2 µM
  TGI: 19.5 µM
TK-10 renal
  GI50: 10.6 µM
  TGI: 22.7 µM
SW-620 colon
  GI50: 11.3 µM
  TGI: 23.4 µM
SK-OV-3 ovarian
  GI50: 3.77 µM
  TGI: 14 µM
HCC-2998 colon
  GI50: 3.01 µM
  TGI: 10.5 µM
NCI-H226 lung
  GI50: 0.0358 µM
  TGI: 17.6 µM
EKVX NSCLC
  GI50: 5.43 µM
  TGI: 17.5 µM
HL-60(TB) leukemia
  GI50: 1.78 µM
  TGI: 3.19 µM
M14 melanoma
  GI50: 1.9 µM
  TGI: 3.82 µM
MDA-MB-468 breast
  GI50: 3.81 µM
  TGI: 10.1 µM
MCF7 breast
  GI50: 4.04 µM
  TGI: 16.2 µM
HCT-116 colon
  GI50: 2.86 µM
  TGI: 8.34 µM
CAKI-1 renal
  GI50: 1.65 µM
  TGI: 10.9 µM
PC-3 prostate
  GI50: 7.34 µM
  TGI: 19.6 µM
SF-295 CNS
  GI50: 12.7 µM
  TGI: 25.5 µM
MALME-3M melanoma
  GI50: 1.88 µM
  TGI: 3.35 µM
OVCAR-8 ovarian
  GI50: 5.32 µM
  TGI: 17.5 µM
SN12C renal
  GI50: 4.16 µM
  TGI: 15 µM
RPMI-8226 leukemia
  GI50: 4.31 µM
  TGI: 14.3 µM
RXF 393 renal
  GI50: 1.73 µM
  TGI: 5.85 µM
SK-MEL-5 melanoma
  GI50: 1.92 µM
  TGI: 4.48 µM
SF-268 CNS
  GI50: 1.53 µM
  TGI: 4.77 µM
NCI-H322M lung
  GI50: 6.37 µM
  TGI: 19.4 µM
OVCAR-3 ovarian
  GI50: 4.05 µM
  TGI: 14.5 µM
A549 NSCLC
  GI50: 6.04 µM
  TGI: 18.5 µM
UACC-62 melanoma
  GI50: 5.33 µM
  TGI: 17 µM
786-0 renal
  GI50: 3.05 µM
  TGI: 12.7 µM
UO-31 renal
  GI50: 8.38 µM
  TGI: 20.7 µM
LOX IMVI melanoma
  GI50: 2.46 µM
  TGI: 6.58 µM
NCI/ADR-RES ovarian
  GI50: 5.26 µM
  TGI: 17.2 µM
HOP-92 NSCLC
  GI50: 7.76 µM
  TGI: 20.1 µM
MDA-MB-435 melanoma
  GI50: 10.9 µM
  TGI: 23 µM
NCI-H23 lung
  GI50: 10.9 µM
  TGI: 22.9 µM
HOP-62 NSCLC
  GI50: 6.07 µM
  TGI: 18.2 µM
T-47D breast
  GI50: 2.82 µM
  TGI: 8.19 µM
SNB-75 CNS
  GI50: 0.613 µM
  TGI: 13.8 µM
OVCAR-5 ovarian
  GI50: 9.74 µM
  TGI: 21.6 µM
